Assay results: patent publication US10687529B2, “Nematotoxic composition of synergistic effect, use of a nematotoxic composition of synergistic effect” (EMPRESA BRASILEIRA DE PESQUISA AGROPECUARIA-EMBRAPA, priority 2012, dated 2020)

Experiments:
[1] = test system: second-stage juveniles (J2) of M. incognita; test: in vitro bioassay against second-stage juveniles (J2), 48 hours' exposure; type: in vivo; details: for % paralyzed namatodes: 0.17 g/L (of each compound in the composition)
Method: FIG. 1—effect of the aqueous crude extracts of seeds of antagonistic plants on (J2) of M. incognita. The bars represent the percentage of live nematodes after 48 hours' exposure. Concentration of 1 mg of each extract for a final volume of 0.3 mL and 100 second-stage juveniles was used in the bioassay in triplicate, having distilled water as negative control. […]
(§1) FIG. 9—(A) Bioassay showing the effect of the commercial compounds on second-stage juveniles of M. incognita after 48 hours' exposure. 1—Control dH20, 2—DECE, 3—Glycose 10%, 4—Glycose 20%, 5—D-Pinitol (80 ug), 6—D-Pinitol (150 ug), 7—L-canavanina (80 ug), 8—L-canavanina (150 ug), 9—palmitic acid (80 ug), 10—palmitic acid (150 ug), 11—citric acid (80 ug), 12—citric acid (150 ug), 13—malic acid (80 ug), 14—malic acid (150 ug), 15—cis-aconitic acid (80 ug), 16—cis-anonitic acid (150 ug), 17—trans-anonitic acid (80 ug), 18—trans-aconitic acid (150 ug), 19—50 mM Tris/HCl pH 8, 20—50 mM acetic acid pH 5, 21—L-phenylamine (80 ug), 22—L-phenylamine (150 ug), 23—L-methionine (80 ug), 24—L-methionine (150 ug), 25—L-tryptophan (80 ug), 26—L-tryptophan (150 ug), 27—S-carboxymethylcistein (80 ug), 28—S-carboxymethylcisteine (150 ug), 29—Zantotoxine (80 ug), 30—Zantotoxine (150 ug), and 31—Glucose 20%+L-canavanine (15)ug). B—Evaluation of the effect of the different commercial compounds after the recovery assay using distilled water.
FIG. 10—(A) Bioassay showing the effect of the commercial compounds and their compositions on second-stage juveniles of M. incognita […] after 48 hours' exposure. C+ positive control (extract); C—: negative control (water); 2: palmitic acid; 3: S-carboxymethylcisteine; 4: trans-aconitic acid; 5: glucose. […] (B)—Evaluation of the effect of the different commercial compounds and their compositions after the recovery assay using distilled water. C+ positive control (extract); 2: palmitic acid; 3: s-carboxymethylcisteine; 4: trans-aconitic acid; 5: glucose.

J2 of M. incognita = test: recovery assay using distilled water, certifying nematicidal or nematostatic effect; type: in vivo
Method: as §1
FIG. 10—(A) Bioassay showing the effect of the commercial compounds and their compositions on second-stage juveniles of M. incognita […] after 48 hours' exposure. C+ positive control (extract); C—: negative control (water); 2: palmitic acid; 3: S-carboxymethylcisteine; 4: trans-aconitic acid; 5: glucose. Concentrations of the compositions: 3+4, 3+5=0.25 g/L (each active compound of the composition); 3+4+5=0.17 g/L each active compound of the composition. (B)—Evaluation of the effect of the different commercial compounds and their compositions after the recovery assay using distilled water. C+ positive control (extract); 2: palmitic acid; 3: s-carboxymethylcisteine; 4: trans-aconitic acid; 5: glucose. Concentrations of the compositions: 3+4, 3+5, 4+5=0.25 g/L (each active compound of the composition); 3+4+5=0.17 g/L each active compound of the composition.

Row | Compound | J2 paralyzed ([1]; 80 μg/300 μL) | J2 paralyzed ([1]; 150 μg/300 μL) | nematicidal activity after the recovery assay (J2 of M. incognita; 150 μg/300 μL) [%] | also measured
1 | CO[C@H]1[C@H](O)[C@@H](O)[C@@H](O)[C@H](O)[C@@H]1O [D-pinitol] | did not exhibit any toxic effect | did not exhibit any toxic effect |  | 
2 | N=C(N)NOCC[C@H](N)C(=O)O [L-canavanine] | did not exhibit any nematotoxic activity |  |  | juveniles remaining paralyzed after the recovery assay (nematicidal activity) (J2 of M. incognita; 105 μg/300 μL): 25%
3 | N[C@@H](Cc1ccccc1)C(=O)O [L-phenylamnine] | not capable of affecting the J2 | not capable of affecting the J2 |  | 
4 | N[C@@H](Cc1c[nH]c2ccccc12)C(=O)O [L-triptofane] | not capable of affecting the J2 | not capable of affecting the J2 |  | 
5 | COc1c2occc2cc2ccc(=O)oc12 [Xantotoxin] | 87% | 87% |  | J2 recovering the mobility after the recovery test (J2 of M. incognita; 80 μg/300 μL): did not recover the mobility; J2 recovering the mobility after the recovery test (J2 of M. incognita; 150 μg/300 μL): did not recover the mobility
6 | O=C(O)/C=C(/CC(=O)O)C(=O)O [cis-aconitic acid] | very low percentage |  | 40 | 
7 | O=C(O)CC(O)(CC(=O)O)C(=O)O [citric acid] | very low percentage |  | 25 | 
8 | O=C(O)CC(O)C(=O)O (stereo not drawn) [malic acid] | very low percentage |  | 18 | 
9 | CCCCCCCCCCCCCCCC(=O)O [palmitic acid] | 98% |  |  | J2 recovering the mobility after the recovery test (J2 of M. incognita; 80 μg/300 μL): 90%; J2 recovering the mobility after the recovery test (J2 of M. incognita; 150 μg/300 μL): 90%
10 | O=C(O)/C=C(\CC(=O)O)C(=O)O [trans-aconitic acid] | 90% |  | 98 | % paralyzed namatodes [1]: 11.12%; % of paralyzed nematodes ([1]; 0.25 g/L (of each compound in the composition)): 27.08%
11 | S-carboxymethylcisteine | about 90% | about 90% |  | J2 recovering the mobility after the recovery test (J2 of M. incognita; 80 μg/300 μL): most J2 recovering the movement; J2 recovering the mobility after the recovery test (J2 of M. incognita; 150 μg/300 μL): most J2 recovering the movement; % paralyzed namatodes [1]: 43.03%
